Measured values as given in patent US11155557B2, “Pyrazolopyrimidine compounds and methods of use thereof” (Genentech, Inc., priority 2016, dated 2021).
Like-named read-outs stand apart in the source and are kept apart here.

Columns and labels:
[1] = target: isolated recombinant JAK1 kinase domain (Homo sapiens (Human), UniProt P23458); test: JAK1 enzyme assay (Caliper LabChip, Ki); format: biochemical
Experimental: The activity of the isolated recombinant JAK1 and JAK2 kinase domain was measured by monitoring phosphorylation of a peptide derived from JAK3 ([…] fluorescently labeled on the N-terminus with 5-carboxyfluorescein) using the Caliper LabChip R technology (Caliper Life Sciences, Hopkinton, Mass.).

[2] = tested on: JAK1-dependent STAT6 phosphorylation in BEAS-2B human bronchial epithelial cells; test: JAK1 pathway assay: IL-13 stimulated STAT6 phosphorylation in BEAS-2B cells; format: cell-based; details: BEAS-2B cells, IL-13 stimulation, read-out: IL-13 p-STAT6 BEAS-2B IC50
Experimental: JAK1 Pathway Assay in Cell Lines was Carried Out as Follows:
Inhibitor potency (EC50) was determined in cell-based assays designed to measure JAK1 dependent STAT phosphorylation.
In one assay approach, TF-1 human erythroleukemia cells obtained from the American Type Culture Collection (ATCC; Manassas, Va.) were used to measure JAK1-dependent STAT6 phosphorylation downstream of IL-13 stimulation. Prior to use in the assays, TF-1 cells were starved of GM-CSF overnight in OptiMEM medium (Life Technologies, Grand Island, N.Y.) supplemented with 0.5% charcoal/dextran stripped fetal bovine serum (FBS), 0.1 mM non-essential amino acids (NEAA), and 1 mM sodium pyruvate. The assays were run in 384-well plates in serum-free OptiMEM medium using 300,000 cells per well. In a second assay approach, BEAS-2B human bronchial epithelial cells obtained from ATCC were plated at 100,000 cells per well of a 96-well plate one day prior to the experiment. The BEAS-2B assay was run in complete growth medium (bronchial epithelial basal medium plus bulletkit; Lonza; Basel, Switzerland).
Test compounds were serially diluted 1:2 in DMSO and then diluted 1:50 in medium just before use. Diluted compounds were added to the cells, for a final DMSO concentration of 0.2%, and incubated for 30 min (for the TF-1 assay) or 1 hr (for the BEAS-2B assay) at 37° C. Then, cells were stimulated with human recombinant cytokine at their respective EC90 concentrations, as previously determined for each individual lot. Cells were stimulated with IL-13 (R&D Systems, Minneapolis, Minn.) for 15 min at 37° C. […] The resultant samples were frozen in the plates at −80° C. Compound mediated inhibition of STAT6 phosphorylation was measured in the cell lysates using MesoScale Discovery (MSD) technology (Gaithersburg, Md.).

[3] = target: isolated recombinant JAK2 kinase domain (Homo sapiens (Human), UniProt O60674); test: JAK2 enzyme assay (Caliper LabChip, Ki)
Chain of isolated recombinant JAK2 kinase domain (O60674 849-1124): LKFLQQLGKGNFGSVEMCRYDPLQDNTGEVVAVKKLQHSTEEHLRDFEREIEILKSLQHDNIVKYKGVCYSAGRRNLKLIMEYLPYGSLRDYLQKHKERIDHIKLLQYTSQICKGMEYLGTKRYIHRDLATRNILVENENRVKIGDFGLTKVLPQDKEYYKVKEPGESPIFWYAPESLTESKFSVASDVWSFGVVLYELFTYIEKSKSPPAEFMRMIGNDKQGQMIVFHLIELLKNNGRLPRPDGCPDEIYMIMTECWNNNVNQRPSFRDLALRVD
Experimental: JAK Enzyme Assays were Carried Out as Follows:
The activity of the isolated recombinant JAK1 and JAK2 kinase domain was measured by monitoring phosphorylation of a peptide derived from JAK3 ([sequence] fluorescently labeled on the N-terminus with 5-carboxyfluorescein) using the Caliper LabChip R technology (Caliper Life Sciences, Hopkinton, Mass.). […] After termination of the kinase reaction, the proportion of phosphorylated product was determined as a fraction of total peptide substrate using the Caliper LabChip R 3000 according to the manufacturer's specifications.

Chain of isolated recombinant JAK1 kinase domain (P23458 875-1153): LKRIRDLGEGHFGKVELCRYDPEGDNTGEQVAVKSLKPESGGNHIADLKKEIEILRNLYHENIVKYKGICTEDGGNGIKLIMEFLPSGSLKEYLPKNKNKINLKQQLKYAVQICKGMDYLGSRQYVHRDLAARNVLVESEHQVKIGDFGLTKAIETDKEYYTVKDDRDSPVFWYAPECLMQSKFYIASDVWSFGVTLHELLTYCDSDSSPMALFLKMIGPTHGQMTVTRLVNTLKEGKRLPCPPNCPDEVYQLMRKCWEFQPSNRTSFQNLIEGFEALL

Row | Ki [1] | Ki ([3]; read-out: JAK2 Ki) | Ki [3] | Structure (SMILES) | IC50 ([2]; Homo sapiens, BEAS-2B) | IC50 [2]
1 | 0.07 nM | – | 0.05 nM | O=C(Nc1c[nH]nc1-c1cc2cn[nH]c2cc1OC(F)F)c1cnn2cccnc12 [Example 21, N-(3-(6-(difluoromethoxy)-1H-indazol-5-yl)-1H-pyrazol-4-yl)pyrazolo[1,5-a]pyrimidine-3-carboxamide] | 37 nM | –
2 | 0.19 nM | 0.12 nM | – | COc1cc2cc(C)sc2cc1-c1n[nH]cc1NC(=O)c1cnn2cccnc12 [Example 22, N-(3-(5-methoxy-2-methylbenzo[b]thiophen-6-yl)-1H-pyrazol-4-yl)pyrazolo[1,5-a]pyrimidine-3-carboxamide] | 6 nM | –
3 | 0.41 nM | 0.27 nM | – | COc1cc2sc(C#N)cc2cc1-c1n[nH]cc1NC(=O)c1cnn2cccnc12 [Example 24, N-(3-(2-cyano-6-methoxybenzo[b]thiophen-5-yl)-H-pyrazol-4-yl)pyrazolo[1,5-a]pyrimidine-3-carboxamide] | 14 nM | –
4 | 0.89 nM | 0.34 nM | – | COc1cc2c(cc1-c1n[nH]cc1NC(=O)c1cnn3cccnc13)CCC2 [Example 27, N-[3-(6-methoxyindan-5-yl)-1H-pyrazol-4-yl]pyrazolo[1,5-a]pyrimidine-3-carboxamide] | 6 nM | –
5 | 0.84 nM | 0.49 nM | – | COc1cc2cnccc2cc1-c1n[nH]cc1NC(=O)c1cnn2cccnc12 [Example 29, N-[3-(7-methoxy-6-isoquinolyl)-1H-pyrazol-4-yl]pyrazolo[1,5-a]pyrimidine-3-carboxamide] | 85 nM | –
6 | 0.3 nM | 0.2 nM | – | COc1cc2[nH]ncc2cc1-c1n[nH]cc1NC(=O)c1cnn2cccnc12 [Example 30, N-[3-(6-methoxy-1H-indazol-5-yl)-1H-pyrazol-4-yl]pyrazolo[1,5-a]pyrimidine-3-carboxamide] | – | 369 nM
7 | 2.09 nM | 0.9 nM | – | COc1cc2[nH]cnc2cc1-c1n[nH]cc1NC(=O)c1cnn2cccnc12 [Example 31, N-[3-(6-methoxy-1H-benzimidazol-5-yl)-1H-pyrazol-4-yl]pyrazolo[1,5-a]pyrimidine-3-carboxamide] | 6910 nM | –
8 | 0.16 nM | 0.11 nM | – | COc1cc2cnsc2cc1-c1n[nH]cc1NC(=O)c1cnn2cccnc12 [Example 32, N-[3-(5-methoxy-1,2-benzothiazol-6-yl)-1H-pyrazol-4-yl]pyrazolo[1,5-a]pyrimidine-3-carboxamide] | 2 nM | –
9 | 0.91 nM | 0.4 nM | – | COc1cc2sncc2cc1-c1n[nH]cc1NC(=O)c1cnn2cccnc12 [Example 33, N-[3-(6-methoxy-1,2-benzothiazol-5-yl)-1H-pyrazol-4-yl]pyrazolo[1,5-a]pyrimidine-3-carboxamide] | 21 nM | –

Further lines, the compound ahead of its results:

Row | Structure (SMILES) | Ki [1] | Ki ([3]; read-out: JAK2 Ki) | Ki [3] | IC50 ([2]; Homo sapiens, BEAS-2B) | IC50 [2]
10 | CC(C)(C)OC(=O)N1CCN(C(=O)c2cc3cc(OC(F)F)c(-c4n[nH]cc4NC(=O)c4cnn5cccnc45)cc3s2)CC1 [Example 9, tert-Butyl 4-(5-(difluoromethoxy)-6-(4-(pyrazolo[1,5-a]pyrimidine-3-carboxamido)-1H-pyrazol-3-yl)benzo[b]thiophene-2-carbonyl)piperazine-1-carboxylate] | 3.99 nM | 2.85 nM | – | 153 nM | –
11 | O=C(Nc1c[nH]nc1-c1cc2sc(C(=O)N3CCNCC3)cc2cc1OC(F)F)c1cnn2cccnc12 [Example 10, N-(3-(5-(difluoromethoxy)-2-(piperazine-1-carbonyl)benzo[b]thiophen-6-yl)-1H-pyrazol-4-yl)pyrazolo[1,5-a]pyrimidine-3-carboxamide] | 4.54 nM | 1.99 nM | – | > 1000 nM | –
12 | O=C(Nc1c[nH]nc1-c1cc2c(cc1OC(F)F)NCCO2)c1cnn2cccnc12 [Example 11] | 0.1 nM | 0.08 nM | – | 4 nM | –
13 | O=C(Nc1c[nH]nc1-c1cc2c(cc1OC(F)F)NCCS2)c1cnn2cccnc12 [Example 12, N-(3-(6-(difluoromethoxy)-3,4-dihydro-2H-benzo[b][1,4]thiazin-7-yl)-1H-pyrazol-4-yl)pyrazolo[1,5-a]pyrimidine-3-carboxamide] | 0.09 nM | 0.06 nM | – | 6 nM | –
14 | NCCn1cc(NC(=O)c2cnn3cccnc23)c(-c2cc3c(cc2OC(F)F)NCCS3)n1 [Example 13, N-(1-(2-aminoethyl)-3-(6-(difluoromethoxy)-3,4-dihydro-2H-benzo[b][1,4]thiazin-7-yl)-1H-pyrazol-4-yl)pyrazolo[1,5-a]pyrimidine-3-carboxamide] | 0.18 nM | 0.13 nM | – | 20 nM | –
15 | O=C1CSc2cc(-c3n[nH]cc3NC(=O)c3cnn4cccnc34)c(OC(F)F)cc2N1 [Example 14, N-[3-[6-(difluoromethoxy)-3-oxo-3,4-dihydro-2H-1,4-benzothiazin-7-yl]-1H-pyrazol-4-yl]pyrazolo[1,5-a]pyrimidine-3-carboxamide] | 0.05 nM | 0.04 nM | – | 27 nM | –
16 | O=C(Nc1c[nH]nc1-c1cc2c(cc1OC(F)F)CCO2)c1cnn2cccnc12 [Example 16, N-(3-(5-(difluoromethoxy)-2,3-dihydrobenzofuran-6-yl)-1H-pyrazol-4-yl)pyrazolo[1,5-a]pyrimidine-3-carboxamide] | 0.21 nM | 0.09 nM | – | 5 nM | –
17 | O=C(Nc1c[nH]nc1-c1cc2c(cc1OC(F)F)CCCO2)c1cnn2cccnc12 [Example 17, N-[3-[6-(difluoromethoxy)-3,4-dihydro-2H-1-benzopyran-7-yl]-H-pyrazol-4-yl]pyrazolo[1,5-a]pyrimidine-3-carboxamide] | 0.32 nM | 0.14 nM | – | 14 nM | –
18 | COC(=O)Cn1cc(NC(=O)c2cnn3cccnc23)c(-c2cc3sc(C#N)cc3cc2OC(F)F)n1 [Example 19, Methyl 2-(3-(2-cyano-5-(difluoromethoxy)benzo[b]thiophen-6-yl)-4-(pyrazolo[1,5-a]pyrimidine-3-carboxamido)-1H-pyrazol-1-yl)acetate] | 0.3 nM | 0.33 nM | – | 21 nM | –
19 | Cn1cc(NC(=O)c2cnn3cccnc23)c(-c2cc3sc(C(=O)N4CCN(C(=O)OC(C)(C)C)CC4)cc3cc2OC(F)F)n1 [Example 20, tert-Butyl 4-(5-(difluoromethoxy)-6-(1-methyl-4-(pyrazolo[1,5-a]pyrimidine-3-carboxamido)-1H-pyrazol-3-yl)benzo[b]thiophene-2-carbonyl)piperazine-1-carboxylate] | 5.57 nM | 4.48 nM | – | 186 nM | –
20 | Cc1cc2cc(OC(F)F)c(-c3n[nH]cc3NC(=O)c3cnn4cccnc34)cc2s1 [Example 25, N-(3-(5-(difluoromethoxy)-2-methylbenzo[b]thiophen-6-yl)-1H-pyrazol-4-yl)pyrazolo[1,5-a]pyrimidine-3-carboxamide] | 0.11 nM | 0.06 nM | – | 5 nM | –
21 | O=C(Nc1c[nH]nc1-c1cc2c(cc1OC(F)F)CCC2)c1cnn2cccnc12 [Example 26, N-[3-[6-(difluoromethoxy)indan-5-yl]-1H-pyrazol-4-yl]pyrazolo[1,5-a]pyrimidine-3-carboxamide] | 0.19 nM | 0.08 nM | – | 8 nM | –
22 | COc1cc2sccc2cc1-c1[nH]ncc1NC(=O)c1cnn2cccnc12 [Example 34, N-[5-(6-methoxybenzothiophen-5-yl)-1H-pyrazol-4-yl]pyrazolo[1,5-a]pyrimidine-3-carboxamide] | 0.6 nM | 0.19 nM | – | 10 nM | –
